Test results as given in US7977322B2 (Vertex Pharmaceuticals Incorporated, priority 2004, dated 2011).

Biological target: T1, ΔF508-CFTR (Homo sapiens, UniProt P13569, DEL508-508)
T1 construct: expressed in transfected cells
Assay: Membrane potential optical (FRET/VIPR) assay, identification of correction compounds
Type: cell-based
Conditions: Table 3, assay not given; for Emax: read-out: % Activity / % Efficacy (relative efficacy)
Summary of the method: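 NIH3T3 mouse fibroblasts stably expressing ΔF508-CFTR were exposed to compound for 16 h at 37° C in serum-free medium, then loaded with DiSBAC2(3)/CC2-DMPE. After addition of 10 μM forskolin plus 20 μM genistein in Cl⁻-free gluconate bath (pH 7.4), depolarization from Cl⁻ efflux was read by FRET (VIPR II).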

T1 sequence (P13569 with tags, fused parts or gaps DEL508-508): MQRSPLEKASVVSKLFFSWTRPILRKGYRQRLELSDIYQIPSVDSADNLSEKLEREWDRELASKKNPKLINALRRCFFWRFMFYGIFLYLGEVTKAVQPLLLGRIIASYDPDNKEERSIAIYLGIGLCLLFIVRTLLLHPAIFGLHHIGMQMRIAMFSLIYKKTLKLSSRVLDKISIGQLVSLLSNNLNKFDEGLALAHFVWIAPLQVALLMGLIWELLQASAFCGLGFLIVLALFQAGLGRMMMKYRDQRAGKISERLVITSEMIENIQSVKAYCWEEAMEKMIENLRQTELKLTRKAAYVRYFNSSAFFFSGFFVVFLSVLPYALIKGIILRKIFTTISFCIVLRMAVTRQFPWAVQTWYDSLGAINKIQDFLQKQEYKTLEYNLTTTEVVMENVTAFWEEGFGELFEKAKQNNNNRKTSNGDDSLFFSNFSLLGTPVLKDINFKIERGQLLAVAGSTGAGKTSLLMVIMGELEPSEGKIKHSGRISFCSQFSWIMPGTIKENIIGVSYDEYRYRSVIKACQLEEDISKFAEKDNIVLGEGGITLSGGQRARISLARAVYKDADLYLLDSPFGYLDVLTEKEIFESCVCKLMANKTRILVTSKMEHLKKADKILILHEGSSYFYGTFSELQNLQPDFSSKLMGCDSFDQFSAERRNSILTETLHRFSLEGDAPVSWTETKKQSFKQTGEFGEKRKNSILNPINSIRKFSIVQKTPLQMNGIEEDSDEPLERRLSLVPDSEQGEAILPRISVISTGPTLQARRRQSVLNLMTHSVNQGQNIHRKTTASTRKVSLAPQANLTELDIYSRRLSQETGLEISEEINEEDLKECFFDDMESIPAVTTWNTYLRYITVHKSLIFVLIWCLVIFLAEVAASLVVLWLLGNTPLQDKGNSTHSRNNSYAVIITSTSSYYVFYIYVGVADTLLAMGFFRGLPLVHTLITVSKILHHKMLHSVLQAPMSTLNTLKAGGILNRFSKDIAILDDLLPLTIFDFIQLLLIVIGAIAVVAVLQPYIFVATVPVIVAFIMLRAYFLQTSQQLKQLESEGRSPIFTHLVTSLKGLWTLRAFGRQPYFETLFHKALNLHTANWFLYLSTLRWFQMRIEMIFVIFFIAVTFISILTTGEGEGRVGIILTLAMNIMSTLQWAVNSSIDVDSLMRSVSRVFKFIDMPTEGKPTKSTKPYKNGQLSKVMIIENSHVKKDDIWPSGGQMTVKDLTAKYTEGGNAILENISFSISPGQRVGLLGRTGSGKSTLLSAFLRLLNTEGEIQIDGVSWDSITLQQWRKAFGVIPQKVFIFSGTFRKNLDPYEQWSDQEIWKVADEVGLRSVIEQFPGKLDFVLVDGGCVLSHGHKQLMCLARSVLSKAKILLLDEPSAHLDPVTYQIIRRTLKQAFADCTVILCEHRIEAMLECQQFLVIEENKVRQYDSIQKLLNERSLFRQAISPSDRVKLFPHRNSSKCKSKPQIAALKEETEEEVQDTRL

SMILES	EC50	% Activity / % Efficacy (relative efficacy)	Emax
CCN(CC)C(c1ccccc1)c1cnc(NC(=O)C2(c3ccc4c(c3)OCO4)CC2)s1 (stereo not shown) [Example 372]	< 10 µM		> 100%
COCCN1CCN(C(c2cnc(NC(=O)C3(c4ccc5c(c4)OCO5)CC3)s2)c2ccccc2Cl)CC1 (stereo not shown) [Example 238]	< 10 µM	+++ (“+++” means>100%)	
CCOc1ccccc1C(N[C@@H](CO)C(C)C)c1cnc(NC(=O)C2(c3ccc4c(c3)OCO4)CC2)s1 (stereo partly shown) [Example 478]	< 10 µM		
CCC(c1cnc(NC(=O)C2(c3ccc4c(c3)OCO4)CC2)s1)N1CCC[C@H]1COC (stereo partly shown) [Example 404]	10 to 25 µM		> 100%
O=C(Nc1ncc(C(Cc2ccccc2Cl)N2CCC(O)CC2)s1)C1(c2ccc3c(c2)OCO3)CC1 (stereo not shown) [Example 460]	< 10 µM		> 100%
CCC(c1cnc(NC(=O)C2(c3ccc4c(c3)OCO4)CC2)s1)N1CCOCC1 (stereo not shown) [Example 398]	10 to 25 µM		25 to 100%
Nc1ccc(Sc2cnc(NC(=O)C3(c4ccc5c(c4)OCO5)CC3)s2)cc1 [Example 100]	< 10 µM	++ (“++” means between 25% to 100%)	
O=C(Nc1ncc(Sc2ccc(Cl)cc2)s1)C1(c2ccc3c(c2)OCO3)CC1 [Example 103]	25 to 60 µM	++ (“++” means between 25% to 100%)	
Nc1ccccc1Sc1cnc(NC(=O)C2(c3ccc4c(c3)OCO4)CC2)s1 [Example 98]	< 10 µM	+++ (“+++” means>100%)	
O=C(Nc1ncc(C(c2ccc(Cl)cc2)N2CC[C@@H](O)C2)s1)C1(c2ccc3c(c2)OCO3)CC1 (stereo partly shown) [Example 335]	< 10 µM		> 100%
O=C(Nc1ncc(C(c2ccccc2Cl)N2CCC(O)C2)s1)C1(c2ccc3c(c2)OCO3)CC1 (stereo not shown) [Example 311]	< 10 µM		> 100%
O=C(Nc1ncc(C(OCC2CCOC2)c2ccccc2Cl)s1)C1(c2ccc3c(c2)OCO3)CC1 (stereo not shown) [Example 258]	< 10 µM		> 100%
COc1cccc(C(c2csc(NC(=O)C3(c4ccc5c(c4)OCO5)CC3)n2)N2CCC(O)CC2)c1 (stereo not shown) [Example 360]	10 to 25 µM		> 100%
CCC(c1cnc(NC(=O)C2(c3ccc4c(c3)OCO4)CC2)s1)N1CCCC1 (stereo not shown) [Example 397]	10 to 25 µM		25 to 100%
O=C(Nc1ncc(C(c2ccccc2Cl)N2CC[C@@H](O)C2)s1)C1(c2ccccc2F)CC1 (stereo partly shown) [Example 448]	10 to 25 µM		> 100%
O=C(Nc1ncc(C(c2ccc(Cl)cc2Cl)N2CCCC2)s1)C1(c2ccc3c(c2)OCO3)CC1 (stereo not shown) [Example 467]	< 10 µM		> 100%

SMILES	EC50	% Activity / % Efficacy (relative efficacy)	Emax
COc1ccc(C2(C(=O)Nc3ncc(Cc4cccc(Cl)c4)o3)CC2)cc1 [Example 153]	< 10 µM	++ (“++” means between 25% to 100%)	
O=C(Nc1ncc(C(c2cccc(Cl)c2)N2CC[C@@H](O)C2)s1)C1(c2ccc3c(c2)OCO3)CC1 (stereo partly shown) [Example 343]	< 10 µM		> 100%
CC(C)(C)c1cc(NC(=O)C2(c3ccc4c(c3)OCO4)CC2)c(C(N)=O)s1 [Example 290]	< 10 µM		25 to 100%
O=C(Nc1ncc(-c2ccccc2)s1)C1(c2ccc3c(c2)OCO3)CC1 [Example 86]	< 10 µM	+++ (“+++” means>100%)	
CC(C)[C@H](CO)NC(c1ccc2c(c1)OC(F)(F)O2)c1cnc(NC(=O)C2(c3ccc4c(c3)OCO4)CC2)s1 (stereo partly shown) [Example 493]	< 10 µM		> 100%
CC(C)(C)C(c1cnc(NC(=O)C2(c3ccc4c(c3)OCO4)CC2)s1)N1CCCC1 (stereo not shown) [Example 391]	10 to 25 µM		> 100%
O=C(Nc1nc(-c2ccc(Cl)cc2Cl)cs1)C1(c2ccc3c(c2)OCO3)CC1 [Example 126]	< 10 µM	+++ (“+++” means>100%)	
COc1cccc(C2(C(=O)Nc3ncc(Cc4ccccc4Cl)s3)CC2)c1 [Example 66]	< 10 µM	+++ (“+++” means>100%)	
O=C(c1cnc(NC(=O)C2(c3ccc4c(c3)OCO4)CC2)s1)c1ccccc1Cl [Example 136]	< 10 µM	+++ (“+++” means>100%)	
CCCN(CCO)C(c1cnc(NC(=O)C2(c3ccc4c(c3)OCO4)CC2)s1)c1ccccc1Cl (stereo not shown) [Example 426]	< 10 µM		25 to 100%
O=C(Nc1ncc(C(c2ccccc2Cl)N2CC[C@@H](O)C2)s1)C1(c2cccc(F)c2)CC1 (stereo partly shown) [Example 447]	< 10 µM		> 100%
CCN(CC)CCn1cc(Cc2ccccc2Cl)s/c1=N/C(=O)C1(c2ccc(OC)cc2)CC1 [Example 73]	25 to 60 µM		< 25%
COc1cccc(C(c2cnc(NC(=O)C3(c4ccc5c(c4)OCO5)CC3)s2)N2CCCCC2)c1 (stereo not shown) [Example 344]	< 10 µM		25 to 100%
COc1ccc(C2(C(=O)Nc3ncc(Cc4ccccc4OC)o3)CC2)cc1 [Example 156]	< 10 µM		> 100%
COC[C@H]1CCCN1C(Cc1ccccc1Cl)c1cnc(NC(=O)C2(c3ccc4c(c3)OCO4)CC2)s1 (stereo partly shown) [Example 455]	< 10 µM		> 100%

Other lines, results leading:

EC50	% Activity / % Efficacy (relative efficacy)	Emax	SMILES
< 10 µM			C[C@@H](CO)NC(c1cnc(NC(=O)C2(c3ccc4c(c3)OCO4)CC2)s1)c1ccccc1Cl (stereo partly shown) [Example 437]
< 10 µM	+++ (“+++” means>100%)		COc1ccncc1Cc1cnc(NC(=O)C2(c3ccc4c(c3)OCO4)CC2)s1 [Example 244]
< 10 µM		> 100%	O=C(Nc1ncc(C(c2cc(F)ccc2F)N2CC[C@@H](O)C2)s1)C1(c2ccc3c(c2)OCO3)CC1 (stereo partly shown) [Example 474]
< 10 µM	++ (“++” means between 25% to 100%)		COc1ccc(C2(C(=O)Nc3ncc(CCc4ccccc4OC)s3)CC2)cc1 [Example 194]
< 10 µM		> 100%	O=C(Nc1ncc(C(c2ccccc2C(F)(F)F)N2CCCC2)s1)C1(c2ccc3c(c2)OCO3)CC1 (stereo not shown) [Example 468]
< 10 µM		> 100%	CCCc1nc(NC(=O)C2(c3ccc4c(c3)OCO4)CC2)sc1C(=O)OCC [Example 108]
< 10 µM	+++ (“+++” means>100%)		COc1cccnc1Cc1cnc(NC(=O)C2(c3ccc4c(c3)OCO4)CC2)s1 [Example 266]
< 10 µM		> 100%	COCC1CCCN1C(c1ccccc1)c1cnc(NC(=O)C2(c3ccc4c(c3)OCO4)CC2)s1 (stereo not shown) [Example 355]
< 10 µM		25 to 100%	CS(=O)(=O)c1ccc(C2(C(=O)Nc3ncc(Cc4ccccc4Cl)s3)CC2)cc1 [Example 309]
< 10 µM	+++ (“+++” means>100%)		COc1ccc(C2(C(=O)Nc3ncc([S+]([O-])c4ccccc4OC)s3)CC2)cc1 (stereo not shown) [Example 87]
10 to 25 µM		> 100%	COC[C@@H]1CCCN1C(c1cnc(NC(=O)C2(c3ccc4c(c3)OCO4)CC2)s1)C(C)(C)C (stereo partly shown) [Example 387]
< 10 µM		> 100%	O=C(Nc1ncc(C(NCCc2ccccn2)c2ccccc2Cl)s1)C1(c2ccc3c(c2)OCO3)CC1 (stereo not shown) [Example 430]
< 10 µM		> 100%	CS(=O)(=O)c1ccc(C(c2cnc(NC(=O)C3(c4ccc5c(c4)OCO5)CC3)s2)N2CCCC2)cc1 (stereo not shown) [Example 385]
< 10 µM		> 100%	CCCC[C@@H](CO)NC(c1cnc(NC(=O)C2(c3ccc4c(c3)OCO4)CC2)s1)c1ccccc1Cl (stereo partly shown) [Example 491]
< 10 µM		25 to 100%	CCOc1ccccc1C(c1cnc(NC(=O)C2(c3ccc4c(c3)OCO4)CC2)s1)N1CCCC1 (stereo not shown) [Example 463]
< 10 µM		> 100%	COc1ccc(C2(C(=O)Nc3ncc(Cc4cccc(F)c4Cl)s3)CC2)cc1 [Example 89]
< 10 µM	+++ (“+++” means>100%)		O=C(Nc1ncc(Oc2ccccc2Cl)s1)C1(c2ccc3c(c2)OCO3)CC1 [Example 93]
10 to 25 µM		25 to 100%	COc1nonc1NC(=O)C1(c2ccc3c(c2)OCO3)CC1 [Example 292]
10 to 25 µM		> 100%	COC[C@@H]1CCCN1C(c1ccccc1)c1cnc(NC(=O)C2(c3ccc4c(c3)OCO4)CC2)s1 (stereo partly shown) [Example 347]
< 10 µM	++ (“++” means between 25% to 100%)		CS(=O)(=O)c1ccc(-c2csc(NC(=O)C3(c4ccc5c(c4)OCO5)CC3)n2)cc1 [Example 119]
< 10 µM		> 100%	O=C(Nc1ncc(C(c2ccc(Cl)cc2Cl)N2CC[C@@H](O)C2)s1)C1(c2ccc3c(c2)OCO3)CC1 (stereo partly shown) [Example 470]
< 10 µM		> 100%	CCC[C@H](CO)NC(c1cnc(NC(=O)C2(c3ccc4c(c3)OCO4)CC2)s1)c1ccccc1Cl (stereo partly shown) [Example 489]
< 10 µM		> 100%	O=C(Nc1ncc(C(c2ccccc2Cl)N2CCC[C@@H]2CO)s1)C1(c2ccc3c(c2)OCO3)CC1 (stereo partly shown) [Example 229]
< 10 µM		> 100%	O=C(Nc1ncc(C(NC2CCCCC2)c2ccccc2Cl)s1)C1(c2ccc3c(c2)OCO3)CC1 (stereo not shown) [Example 411]
10 to 25 µM		25 to 100%	O=C1NOC[C@@H]1NC(c1cnc(NC(=O)C2(c3ccc4c(c3)OCO4)CC2)s1)c1ccccc1Cl (stereo partly shown) [Example 407]
< 10 µM		> 100%	CC(C)[C@H](CO)NC(c1cnc(NC(=O)C2(c3ccc4c(c3)OCO4)CC2)s1)c1ccccc1Cl (stereo partly shown) [Example 440]
< 10 µM		> 100%	COCCOC(c1cnc(NC(=O)C2(c3ccc4c(c3)OCO4)CC2)s1)c1ccccc1Cl (stereo not shown) [Example 273]
< 10 µM		25 to 100%	NC(c1cnc(NC(=O)C2(c3ccc4c(c3)OCO4)CC2)s1)c1ccccc1Cl (stereo not shown) [Example 475]
< 10 µM		> 100%	COCC1CCCN1C(c1cccc(OC)c1)c1cnc(NC(=O)C2(c3ccc4c(c3)OCO4)CC2)s1 (stereo not shown) [Example 353]
